These results are taken from publication PMC7926980, “The Antiproliferative and Apoptotic Effect of a Novel Synthesized S-Triazine Dipeptide Series, and Toxicity Screening in Zebrafish Embryos” (Molecules, 2021).

Entries after “also recorded” stand apart in the source; their conditions may differ.

Series [1] concerns zebrafish embryos. Briefly: Zebrafish embryo imaging (morphology, teratogenicity). As to conditions: 1 mM, embryos at 48 hpf, versus untreated embryos. Type of series: in vivo. The text has this: The treated embryos had cardiac edema, craniofacial defects, tail lesions, and a delay in embryonic development. These observations are consistent with the findings in the literature.
A Zeiss Observer D1 inverted microscope using Zeiss ZEN software was used to capture the images of the live zebrafish embryos.
Figure 6 Representative images of the zebrafish embryos 48 hpf (A) control or (B) treated.

Series [2] has as its system MDA-MB-231 cells. In words: MTT cell viability assay, MDA-MB-231. Format: cell-based. As to conditions: Homo sapiens, 72 h treatment. On the procedure: (§1) The antiproliferative activity of the synthesized compounds was evaluated by the 3-(4,5-dimethylthiazol-2-yl)-2,5-diphenyl tetrazolium bromide (MTT) cell viability assay. Two types of breast cancer cell lines—namely MCF-7, which has estrogen and progesterone receptors, and MDA-MB-231, which is triple negative—were used, in addition to a colon cancer cell line (HCT-116).
(§2) The target products 3a–o were evaluated for their antiproliferative activity using the MTT viability assay of the MCF-7, MDA-MB-231 and HCT-116 cell lines (in triplicate) on at least three independent occasions for the determination of the reported mean values.
(§3) The three human tumor cell lines MCF-7, MDA-MB-231 and HCT-116 were cultured in Dulbecco’s Modified Eagle’s Medium (DMEM) with 10% fetal bovine serum, 2 mM L-glutamine and 100 µg/mL penicillin/streptomycin. The cells were maintained at 37 °C in 5% CO2 in a humidified incubator. All of the cells were sub-cultured 3 times/week by trypsinization using TrypLE Express (1×).
(§4) In order to calculate the relative IC50 values, the antiproliferative effect of compounds 3a–o was tested in three cancer cell lines (MCF-7, MDA-MB-231, HCT-116) and normal epithelial embryonic kidney cells (HEK-293) using the MTT viability assay. The cells were seeded in 96-well plates at a density of 10 × 10^3 cells/mL, in a total volume of 200 µL per well. In total, 0.1% DMSO was used as a vehicle control. […] The culture medium was then removed, and the cells were washed with phosphate-buffered saline (PBS), and 100 µL MTT was added (for a final concentration of 5 mg/mL MTT). The cells were incubated for 4 h in darkness at 37 °C. Next, 200 µL DMSO was added to each well, and the cells were maintained at room temperature in darkness for 20 min. The absorbance was detected with a microplate reader at 570 nm. The results were expressed as a percentage of viability relative to the vehicle control (100%). The dose-response curves were plotted, and the IC50 values were obtained using Prism software (GraphPad Software, Inc., La Jolla, CA, USA). All of the experiments were repeated in three independent experiments.

For series [3], the system named is HCT-116 cells. Briefly: MTT cell viability assay, HCT-116. Type of series: cell-based. The conditions noted are these: Homo sapiens, 72 h treatment. On the procedure:
as §1, §2, §3, §4

The subject of series [4] is MCF-7 cells. Briefly: MTT cell viability assay, MCF-7. Format: cell-based, human. As to conditions: 72 h treatment. On the procedure:
as §1, §2, §3, §4

The subject of series [5] is zebrafish embryos. In words: Zebrafish embryo mortality/toxicity. Type of series: in vivo. As to conditions: maximum concentration tested 1 mM, versus DMSO control. As to the method:
(§5) The zebrafish embryos were obtained by natural pairwise breeding, and were treated essentially as described previously.
(§6) The compounds were dissolved in dimethylsulfoxide (DMSO) in order to prepare a stock concentration of 10 mM. The embryos treated with 0.10% DMSO (v/v) served as the negative controls.
(§7) The fish were kept following the national and international guidelines for the care and use of laboratory animals. The fertilized eggs were obtained by the natural pairwise breeding of adult fish. The approval of the Ethics Committee for the use and care of laboratory animals was not needed, as zebrafish larvae less than 5 days post fertilization were used.
(§8) A stock solution of 50 mM was prepared by dissolving the compounds in dimethyl sulfoxide (DMSO). At least 30 fertilized eggs were sorted and placed in 60-mm sterile glass Petri dishes. A serial dilution of the compounds was prepared by adding the required amount of the compound directly into 5 mL water, and the zebrafish embryos were then exposed to serial dilutions (0.5 to 1000 µM) of each compound overnight. The number of dead and living embryos were counted after the overnight exposure.

Series [6] can be described thus: Zebrafish embryo mortality/toxicity. Format: in vivo. As to conditions: wild-type, in vivo; zebrafish embryos, overnight exposure, 0.5 to 1000 µM; mean of three biological replicates ± standard deviation. On the procedure: as §5, §6, §7, §8

Take `COC(=O)CNC(=O)CNc1nc(Nc2ccccc2)nc(N2CCOCC2)n1` [Compound 3a, Methyl (4-morpholino-6-(phenylamino)-1,3,5-triazin-2-yl) glycylglycinate]: the “embryonic abnormality or morphological difference in zebrafish embryo images” value in series [1] is given as “did not indicate any embryonic abnormality or morphological difference”. The IC50 was 9.36 ± 1.15 µM in series [2]; 17.9 ± 3.74 µM in series [3]; 0.82 ± 0.37 µM in series [4]; below 1 µM in series [4] (Homo sapiens, MCF7, 72 h). Besides, in series [5], the “toxicity / mortality in zebrafish embryos” value is recorded as “did not show any toxicity; also recorded: same mortality ratio as the control”. For the same molecule, the LC50 in series [6] is above 1000 µM.
